Results published in patent US20100105746A1, “METHOD FOR TREATING METABOLIC DISEASES” (priority 2008, published 2010).
pEC50: −log10 of the molar value.

Legend:
[1] = Multiplex bioanalytics profiling of plasma lipids in drug-dosed rats (Example 1); type: in vivo, rat; settings: 7 days
Description: Multiplex bioanalytics profiling can elucidate novel pharmacological actions of drugs via measurement of hundreds of disease-relevant biomolecules in biofluids collected from drug-dosed animals. Romazarit was evaluated via a full multiplex bioanalytics profiling study.
(§1) In an initial experiment, two dose groups of six animals per group received either 5 or 50 mg/kg b.i.d., and a further group received vehicle only, as a control. A follow-up experiment was performed to explore dose-response and the selected doses were 15 and 50 mg/kg b.i.d., again plus control.
In both experiments, urine was collected from each animal by clean-catch after the final dose on day 7, and cerebrospinal fluid (CSF) and plasma were collected (terminal samples) on day 8. Aliquots of the CSF and plasma samples from each individual were submitted for LC-MS analyses of bioanalytes. Three different separation methods were run, with MS analyses in both positive and negative ion modes, to enable resolution of relative quantification of the bioanalytes. These methods included: • RP-I: LC-MS of polar and non-polar abundant lipids (e.g., individual cholesterol esters, triglycerides, diacylglycerols, phospholipids, lysophospholipids); • RP-II: LC-MS of lower abundance bioanalytes (e.g., eicosanoids & other lipid mediators, fatty acids, oxidized fatty acids, bile acids, conjugated bile acids); • PLR: LC-MS of polar compounds (e.g., catecholamines & serotonin pathway, amino acids, organic acids, sugars).

[2] = LC-MS of plasma amino acids and thyroxine in rats (Example 2); type: in vivo, rat; settings: 7 days
Description: as §1
In both experiments, urine was collected from each animal by clean-catch after the final dose on day 7, and cerebrospinal fluid (CSF) and plasma were collected (terminal samples) on day 8. Aliquots of the CSF and plasma samples from each individual were submitted for LC-MS analyses of bioanalytes. Three different separation methods were run, with MS analyses in both positive and negative ion modes, to enable resolution of relative quantification of the bioanalytes.

[3] = Oral glucose tolerance test (OGTT) in rats with diet-induced obesity (Example 5); type: in vivo, rat; settings: for Glucose concentration maximum / Glucose concentration excursion (baseline to maximum): OGTT day 21, DIO rats; for Time to maximum (glucose concentration): OGTT day 21, dextrose 2 g/kg, DIO rats
Description: As part of the study described in Example 4, an oral glucose tolerance test (OGTT) was performed on day 21 of the dosing period, after a 2-4 hour fast. Dextrose (2 g/kg) was administered by oral gavage. Blood for glucose analysis was collected at 0, 15, 30, 60, 120 and 180 minutes after dextrose administration. At each time point, 0.25 ml whole blood was collected in EDTA, processed to plasma, and analyzed for blood glucose with a low-volume glucose kit.

[4] = Terminal fasting serum glucose and lipids in rats with diet-induced obesity (Example 6); type: in vivo, rat; settings: DIO rats, vs vehicle control
Description: As part of the study described in Example 4, a terminal blood sample (0.5 ml whole blood in EDTA) was collected on day 24, after a 12-18 hour fast. Whole blood was processed to serum, and analyzed for glucose, total cholesterol, HDL cholesterol, free fatty acids and total triglycerides.

human PPARα = target: T1, human PPARα (Homo sapiens, UniProt Q07869); assay: PPARRE-luciferase reporter in HepG2 cells transfected with human PPARα; type: cell-based; settings: retinoic acid 200 nM, read-out: EC50 activation of human PPARα (hPPARα)
T1 construct: expressed in transfected cells; host or cells: HepG2
T1 sequence (Q07869 1-468): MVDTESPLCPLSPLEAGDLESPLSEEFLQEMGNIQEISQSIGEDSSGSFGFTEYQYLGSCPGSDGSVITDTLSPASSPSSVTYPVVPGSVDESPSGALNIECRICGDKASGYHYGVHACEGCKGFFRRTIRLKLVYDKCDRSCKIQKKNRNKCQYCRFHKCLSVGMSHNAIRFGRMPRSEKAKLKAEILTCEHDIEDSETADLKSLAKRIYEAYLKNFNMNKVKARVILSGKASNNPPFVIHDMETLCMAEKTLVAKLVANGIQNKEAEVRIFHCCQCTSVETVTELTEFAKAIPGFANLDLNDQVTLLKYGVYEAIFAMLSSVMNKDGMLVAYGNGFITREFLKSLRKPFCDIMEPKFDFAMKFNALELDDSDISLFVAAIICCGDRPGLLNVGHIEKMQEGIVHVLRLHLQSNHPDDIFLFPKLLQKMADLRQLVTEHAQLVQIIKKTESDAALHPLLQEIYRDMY
Description: (§2) For this study, a luciferase reporter plasmid containing 5 copies of a defined genetic regulatory PPARα response element (PPARRE) was utilized to detect romazarit-induced PPARRE activation in presence of a co-activator, retinoic acid. Specifically, HepG2 cells were transfected with expression vectors for either human or rat PPARα and the PPARRE-luciferase reporter plasmid. After 24 hours, the cells were trypsanized and subsequently seeded in 96-well clear-bottom plates at a density of 1.0×10^5 cells/ml.

rat PPARα = target: T2, rat PPARα (Rattus norvegicus, UniProt P37230); assay: PPARRE-luciferase reporter in HepG2 cells transfected with rat PPARα; type: cell-based; settings: retinoic acid 200 nM, read-out: EC50 activation of rat PPARα (rPPARα)
T2 construct: expressed in transfected cells; host or cells: HepG2
T2 sequence (P37230 1-468): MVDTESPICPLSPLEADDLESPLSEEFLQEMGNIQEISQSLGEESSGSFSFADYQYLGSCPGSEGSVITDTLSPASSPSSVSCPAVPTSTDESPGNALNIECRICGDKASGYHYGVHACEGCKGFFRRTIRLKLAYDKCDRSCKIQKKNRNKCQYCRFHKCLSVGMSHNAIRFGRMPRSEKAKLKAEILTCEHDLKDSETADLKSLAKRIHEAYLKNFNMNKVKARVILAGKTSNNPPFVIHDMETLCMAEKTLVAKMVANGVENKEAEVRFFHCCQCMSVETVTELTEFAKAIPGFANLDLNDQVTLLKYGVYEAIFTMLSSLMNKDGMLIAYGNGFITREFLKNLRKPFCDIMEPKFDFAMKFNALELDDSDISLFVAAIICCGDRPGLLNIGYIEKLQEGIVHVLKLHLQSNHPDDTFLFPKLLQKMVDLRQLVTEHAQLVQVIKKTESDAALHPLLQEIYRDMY
Description: as §2

[5] = 50 mg/kg b.i.d. p.o., second experiment
[6] = 5 and 50 mg/kg b.i.d. p.o., initial experiment

In the case of `Cc1nc(-c2ccc(Cl)cc2)oc1COC(C)(C)C(=O)O` [romazarit, 2-[[2-(4-chlorophenyl)-4-methyl-5-oxazolyl]methoxy]-2-methylpropanoic acid], the plasma triglycerides ([1]; 5 mg/kg b.i.d. p.o., initial experiment) was “also apparent”, the plasma triglycerides ([1]; 15 mg/kg b.i.d. p.o., second experiment) was “lowered plasma triglycerides to a degree that was intermediate” and the plasma triglycerides ([1]; 50 mg/kg b.i.d. p.o., initial experiment) was “highly pronounced”. For the same compound, the plasma cholesterol esters [1, 5] was “generally similar to those seen with the same dose in the initial experiment”, the plasma triglycerides [1, 5] was “generally similar to those seen with the same dose in the initial experiment” and the plasma cholesterol esters [1, 6] was “increased”. For the same compound, the plasma amino acids [2, 5] was “generally similar to those for the same dose in the initial experiment”, the plasma thyroxine [2, 5] was “generally similar to those for the same dose in the initial experiment” and the “levels of common amino acids in plasma” value [2, 6] was “small but significant lowering”. The “plasma thyroxine (T4)” value [2, 6] was “concomitant decrease”, the Glucose concentration maximum ([3]; 15 mg/kg) was 230.1 mg/dL and the “Glucose concentration excursion (baseline to maximum)” value ([3]; 50 mg/kg) was 61.1 mg/dL. The Glucose concentration maximum ([3]; 50 mg/kg) was 203.3 mg/dL, the “Glucose concentration excursion (baseline to maximum)” value ([3]; 100 mg/kg) was 42.7 mg/dL and the Glucose concentration maximum ([3]; 100 mg/kg) was 185.1 mg/dL. For the same compound, the “Time to maximum (glucose concentration)” value ([3]; 15 mg/kg) was 15 min, the “Time to maximum (glucose concentration)” value ([3]; 50 mg/kg) was 15 min and the “Time to maximum (glucose concentration)” value ([3]; 100 mg/kg) was 60 min. For the same compound, the “terminal (total) cholesterol levels” value ([4]; day 24, 15 mg/kg once daily) was “not statistically significant”, the “terminal HDL levels” value ([4]; day 24, 15 mg/kg once daily) was “not statistically significant” and the “terminal fasting levels of triglycerides” value ([4]; day 24, 15 mg/kg once daily) was “significant reduction”. For the same compound, the “terminal fasting serum glucose” value ([4]; day 24, 15 mg/kg once daily) was “significantly reduced”, the “terminal levels of free fatty acids” value ([4]; day 24, 15 mg/kg once daily) was “did not, at any of the tested doses, affect” and the “terminal (total) cholesterol levels” value ([4]; day 24, 50 mg/kg once daily) was “significantly reduced”. The “terminal HDL levels” value ([4]; day 24, 50 mg/kg once daily) was “significantly reduced”, the “terminal fasting levels of triglycerides” value ([4]; day 24, 50 mg/kg once daily) was “significant reduction” and the “terminal fasting serum glucose” value ([4]; day 24, 50 mg/kg once daily) was “significantly reduced”. For the same compound, the “terminal levels of free fatty acids” value ([4]; day 24, 50 mg/kg once daily) was “did not, at any of the tested doses, affect”, the “terminal (total) cholesterol levels” value ([4]; day 24, 100 mg/kg once daily) was “significantly reduced” and the “terminal HDL levels” value ([4]; day 24, 100 mg/kg once daily) was “significantly reduced”. For the same compound, the “terminal fasting levels of triglycerides” value ([4]; day 24, 100 mg/kg once daily) was “did not achieve statistical significance”, the “terminal fasting serum glucose” value ([4]; day 24, 100 mg/kg once daily) was “significantly reduced” and the “terminal levels of free fatty acids” value ([4]; day 24, 100 mg/kg once daily) was “did not, at any of the tested doses, affect”. It also gave a pEC50 (human PPARα) of roughly 3.70 and a pEC50 (rat PPARα) of roughly 3.70.
